Test results from US11230526B1, “Cylcoalkenyl derivatives useful as agonists of the GPR120 and/or GPR40 receptors” (Janssen Pharmaceutica NV, priority 2018, dated 2022).

Experiments:
human GPR40 = target: T1, human GPR40 (Homo sapiens, UniProt O14842); assay: GPR40 calcium flux assay, human GPR40; format: cell-based; conditions: HEK293 cells stably expressing GPR40; table does not say human or rat
T1 construct: expressed in transfected cells
Procedure: Compounds were tested in a calcium flux assay using transfected HEK293 cells stably expressing either human GPR40 or rat GPR40. Human GPR40 expressing cells were cultured in DMEM−High Glucose media supplemented with 10% fetal bovine serum, 1×L-Glutamine, 1×Penicillin/Streptomycin and 500 μg/mL G418. Rat GPR40 expressing cells were cultured in DMEM−High Glucose media supplemented with 10% fetal bovine serum and 1 μg/mL puromycin. Cells were plated into poly-D-lysine coated 384-well plates and cultured overnight in a 37° C. humidified tissue culture incubator under 5% CO2/[…] atmosphere.
On the day of the experiment, the culture media was replaced with assay buffer (HBSS, 20 mM HEPES, 0.1% BSA) and the cells incubated at 37° C. for 1 h. Calcium-sensitive fluorescent dye (Fluo 8 No-Wash Calcium Dye, ABD Bioquest) was then added and the cells incubated for another 30 min at 37° C. followed by 15 min at room temperature while protected from the light. The cell plate and a plate of diluted compounds of Formula (I) were loaded into a fluorescent plate reader that added compounds onto the cells while measuring the fluorescence intensity of each well. The plate reader recorded fluorescence intensity at 1 second intervals for 8 min and provided the data for analysis in an Excel format. EC50 values were calculated using Prism (GraphPad) software.

Human GPR120 short form = target: T2, Human GPR120 short form (Homo sapiens, UniProt Q5NUL3); assay: Human GPR120 calcium flux assay, Procedure Calcium B (4200 cells/well); format: cell-based
T2 construct: expressed in transfected cells
T2 sequence (Q5NUL3 1-361): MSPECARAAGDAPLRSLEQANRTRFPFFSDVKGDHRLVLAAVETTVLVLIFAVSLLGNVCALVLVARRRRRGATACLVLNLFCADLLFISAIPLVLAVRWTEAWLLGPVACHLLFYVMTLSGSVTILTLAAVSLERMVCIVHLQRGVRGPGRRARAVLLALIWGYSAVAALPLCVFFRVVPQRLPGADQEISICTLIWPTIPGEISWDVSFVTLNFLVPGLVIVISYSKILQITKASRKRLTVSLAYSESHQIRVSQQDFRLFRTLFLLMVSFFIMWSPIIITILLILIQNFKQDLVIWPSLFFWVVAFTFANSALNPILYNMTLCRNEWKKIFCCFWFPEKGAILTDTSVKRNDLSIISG
Procedure: Human GPR120 in Calcium Flux Assay
These cells are first loaded with the Ca^+2 sensitive dye, Fluo-4 NW. Upon stimulation, intracellular released Ca^+2 can bind to the dye and alter its fluorescence intensity. This increase in fluorescence signal, and thus the flux in intracellular [Ca^2+], is detected and quantitated by fluorescence imaging using a FLIPR reader. The effect of the agonist is measured as a function of concentration and used to calculate an EC50 based upon a response curve.
In this procedure 4200 cells/well were employed.
A Human GPR120 clone (Genbank accession number NM_001195755.1) was placed into the pcDNA3.1 mammalian expression vector carrying the neomycin resistance gene. A stable mammalian cell was generated by placing the above clone into a HEK293 background. […] Cells were split 2 times a week to keep the cells in the log-phase growth. […]
The assay was performed on a FLIPR plate reader using the following parameters. Baseline was read for 10 seconds at 1 sec intervals. The program was set to transfer 10 μL of ligand from compound plate to cell plate after baseline reading. Aspiration was executed at: 10 μL/sec speed, 4.6 μL height, Dispensing was executed at: 30 μL/sec speed, 45 μL height. After compound addition, each well was read for 300 sec, with measurements collected at 1 sec intervals.
The kinetic data from the FLIPR was based upon a 5 minute window for data collection. The fluorescence of each sample well was used for individual calculations of a normalized RFU value, which was defined as maximum response minus the minimum response. The normalized fluorescence reading (RFU) was calculated as follows: RFU=Fmax−Fmin
The Fitting Equation was: Y=Bottom+(Top-Bottom)/(1+10^((Log EC50−X)*HillSlope)), where X is the log of the concentration and Y is the response.

T1 sequence (O14842 whole entry): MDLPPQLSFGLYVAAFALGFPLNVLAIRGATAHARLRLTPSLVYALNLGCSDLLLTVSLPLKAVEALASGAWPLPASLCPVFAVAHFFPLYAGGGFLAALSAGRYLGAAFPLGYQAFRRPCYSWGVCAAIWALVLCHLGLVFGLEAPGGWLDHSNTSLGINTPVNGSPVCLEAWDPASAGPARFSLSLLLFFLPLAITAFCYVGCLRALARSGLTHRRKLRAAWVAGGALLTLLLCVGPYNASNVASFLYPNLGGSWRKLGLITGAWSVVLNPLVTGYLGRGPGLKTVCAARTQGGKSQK

| SMILES | EC50 (human GPR40) | EC50 (Human GPR120 short form) |
| --- | --- | --- |
| CCC1CCC(COc2ccc(CCC(=O)O)c(C)c2C)=C1c1ccc(Cl)cc1 (stereo not shown) [Compound 6, 3-[4-[[2-(4-chlorophenyl)-3-ethyl-cyclopenten-1-yl]methoxy]-2,3-dimethyl-phenyl]Propanoic Acid] | > 5000 nM | > 5000 nM |
| Cc1c(CCC(=O)O)ccc(OCC2=C(c3ccc(Cl)cc3)C(C(C)C)CC2)c1C (stereo not shown) [Compound 46, 3-[4-[[2-(4-chlorophenyl)-3-isopropyl-cyclopenten-1-yl]methoxy]-2,3-dimethyl-phenyl]Propanoic Acid] | > 5000 nM | > 5000 nM |
| O=C(O)CCc1ccc(OCC2=C(c3ccc(Cl)cc3)CCC2)cc1C(F)(F)C(F)(F)F [Compound 89, 3-[4-[[2-(4-chlorophenyl)cyclopenten-1-yl]methoxy]-2-(1,1,2,2,2-pentafluoroethyl)phenyl]Propanoic Acid] |  | 1410 nM |
| O=C(O)CCc1cc(F)c(OCC2=C(c3ccc(Cl)cc3)CCC2)cc1C(F)(F)F [Compound 91, 3-[4-[[2-(4-chlorophenyl)cyclopenten-1-yl]methoxy]-5-fluoro-2-(trifluoromethyl)phenyl]Propanoic Acid] | > 5000 nM | > 5000 nM |
| Cc1cc(CCC(=O)O)c(C(F)(F)F)cc1OCC1=C(c2ccc(Cl)cc2)CCC1 [Compound 98, 3-[4-[[2-(4-chlorophenyl)cyclopenten-1-yl]methoxy]-5-methyl-2-(trifluoromethyl)phenyl]Propanoic Acid] | > 5000 nM | 2030 nM |
| O=C(O)CCc1cc(Br)c(OCC2=C(c3ccc(Cl)cc3)CCC2)c(Br)c1C(F)(F)F [Compound 101, 3-[3,5-dibromo-4-[[2-(4-chlorophenyl)cyclopenten-1-yl]methoxy]-2-(trifluoromethyl)phenyl]Propanoic Acid] | > 5000 nM | 1230 nM |
| O=C(O)CCc1ccc(OCC2=C(c3ccc(F)c(F)c3)CCC2)cc1 [Compound 103] | > 5000 nM | > 5000 nM |
| O=C(O)CCc1ccc(OCC2=C(c3ccc(Cl)cc3)CCC2)cc1 [Compound 107] | > 5000 nM | > 5000 nM |
| CCc1cc(CCC(=O)O)c(C(F)(F)F)cc1OCC1=C(c2ccc(Cl)cc2)CCC1 [Compound 142, 3-[4-[[2-(4-chlorophenyl)cyclopenten-1-yl]methoxy]-5-ethyl-2-(trifluoromethyl)phenyl]Propanoic Acid] | > 5000 nM |  |
| CC(Cc1cc(F)c(OCC2=C(c3ccc(Cl)cc3)CCC2)c(F)c1)C(=O)O (stereo not shown) [Compound 144, 3-[4-[[2-(4-chlorophenyl)cyclopenten-1-yl]methoxy]-3,5-difluoro-phenyl]-2-methyl-Propanoic Acid] | > 5000 nM |  |
| Cc1c(CCC(=O)O)ccc(OCC2=C(c3ccc(Cl)cc3)CCC2=O)c1C [Compound 145, 3-[4-[[2-(4-chlorophenyl)-5-oxo-cyclopenten-1-yl]methoxy]-2,3-dimethyl-phenyl]Propanoic Acid] | > 5000 nM | 2000 nM |
| CC(C)(C)c1cc(OCC2=C(c3ccc(Cl)cc3)CCC2)ccc1CCC(=O)O [Compound 168, 3-[2-tert-butyl-4-[[2-(4-chlorophenyl)cyclopenten-1-yl]methoxy]phenyl]Propanoic Acid] |  | > 5000 nM |
| CS(=O)(=O)CCCCc1cc(CCC(=O)O)ccc1OCC1=C(c2ccc(Cl)cc2)CCC1 [Compound 181, 3-[4-[[2-(4-chlorophenyl)cyclopenten-1-yl]methoxy]-3-(4-methylsulfonylbutyl)phenyl]Propanoic Acid] |  | > 5000 nM |
| CSCCCCc1cc(CCC(=O)O)ccc1OCC1=C(c2ccc(Cl)cc2)CCC1 [Compound 198, 3-[4-[[2-(4-chlorophenyl)cyclopenten-1-yl]methoxy]-3-(4-methylsulfanylbutyl)phenyl]Propanoic Acid] | 2140 nM | 1290 nM |
| O=C(O)CCc1cc(Cl)c(OCC2=C(c3ccc(F)cc3)CC(F)(F)C2)c(Cl)c1 [Compound 205, 3-[3,5-dichloro-4-[[4,4-difluoro-2-(4-fluorophenyl)cyclopenten-1-yl]methoxy]phenyl]Propanoic Acid] | > 5000 nM | 465 nM |
| N#Cc1cc(OCC2=C(c3ccc(F)cc3)CC(F)(F)C2)ccc1CCC(=O)O [Compound 207, 3-[2-cyano-4-[[4,4-difluoro-2-(4-fluorophenyl)cyclopenten-1-yl]methoxy]phenyl]Propanoic Acid] | 1200 nM | 2100 nM |
| Cc1cc(CCC(=O)O)ccc1OCC1=C(c2ccco2)CCC1 [Compound 208, 3-[4-[[2-(2-furyl)cyclopenten-1-yl]methoxy]-3-methyl-phenyl]Propanoic Acid] | > 5000 nM | 185 nM |
| O=C(O)CCc1ccc(OCC2=C(c3ccc(Cl)cc3)CC(F)C2)cc1Cl (stereo not shown) [Compound 252, 3-[2-chloro-4-[[2-(4-chlorophenyl)-4-fluoro-cyclopenten-1-yl]methoxy]phenyl]Propanoic Acid] |  | 265 nM |
| Cc1cc(OCC2=C(c3cccc(F)c3)CCC2)c(F)cc1CCC(=O)O [Compound 305, 3-[5-fluoro-4-[[2-(3-fluorophenyl)cyclopenten-1-yl]methoxy]-2-methyl-phenyl]Propanoic Acid] |  | 378 nM |
| Cc1cccc(C2=C(COc3cc(C)c(CCC(=O)O)cc3F)CCC2)c1 [Compound 318, 3-[5-fluoro-2-methyl-4-[[2-(m-tolyl)cyclopenten-1-yl]methoxy]phenyl]Propanoic Acid] |  | 957 nM |
| N#Cc1cc(OCC2=C(C3CCCC3)CCC2)ccc1CCC(=O)O [Compound 414, 3-[2-cyano-4-[(2-cyclopentylcyclopenten-1-yl)methoxy]phenyl]Propanoic Acid] |  | 2580 nM |
| O=C(O)CCc1ccc(OCC2=C(CC3CCCC3)CCC2)cc1C(F)(F)F [Compound 420, 3-[4-[[2-(cyclopentylmethyl)cyclopenten-1-yl]methoxy]-2-(trifluoromethyl)phenyl]Propanoic Acid] |  | 1190 nM |
| Cc1c(CCC(=O)O)ccc(OCC2=C(CC3CCCC3)CCC2)c1C [Compound 427, 3-[4-[[2-(cyclopentylmethyl)cyclopenten-1-yl]methoxy]-2,3-dimethyl-phenyl]Propanoic Acid] |  | 231 nM |
| Cc1c(CCC(=O)O)cc(I)c(OCC2=C(c3ccc(I)cc3)CCCC2)c1C [Compound 524, 3-[5-iodo-4-[[2-(4-iodophenyl)cyclohexen-1-yl]methoxy]-2,3-dimethyl-phenyl]Propanoic Acid] |  | 1570 nM |
| O=C(O)CCc1cc(F)c(OCC2=C(c3ccc(Cl)c(F)c3)CCC(F)(F)C2)c(F)c1 [Compound 528, 3-[4-[[2-(4-chloro-3-fluoro-phenyl)-5,5-difluoro-cyclohexen-1-yl]methoxy]-3,5-difluoro-phenyl]Propanoic Acid] |  | 1070 nM |
| O=C(O)CCc1cc(F)c(OCC2=C(c3cncs3)CCC(F)(F)C2)c(F)c1 [Compound 549, 3-[4-[(5,5-difluoro-2-thiazol-5-yl-cyclohexen-1-yl)methoxy]-3,5-difluoro-phenyl]Propanoic Acid] |  | 1280 nM |
| CS(=O)(=O)CCCCc1cc(CCC(=O)O)ccc1OCC1=C(c2ccc(Cl)cc2)CCC(F)(F)C1 [Compound 551, 3-[4-[[2-(4-chlorophenyl)-5,5-difluoro-cyclohexen-1-yl]methoxy]-3-(4-methylsulfonylbutyl)phenyl]Propanoic Acid] |  | > 5000 nM |
| CSCCCCc1cc(CCC(=O)O)ccc1OCC1=C(c2ccc(Cl)cc2)CCC(F)(F)C1 [Compound 565, 3-[4-[[2-(4-chlorophenyl)-5,5-difluoro-cyclohexen-1-yl]methoxy]-3-(4-methylsulfanylbutyl)phenyl]Propanoic Acid] |  | 3890 nM |
